# Legend:
# [1] = Pharmacokinetic test of rats (intravenous and intragastric administration); type: in vivo; conditions: SD rats; for AUC(0-t) / Cmax / clearance / half-life: rat, plasma
# Description: This experiment was intended to evaluate a pharmacokinetic behavior of an implementing compound after intravenous injection or intragastric administration in the rats. Intravenous injection administration: a test compound was prepared into 0.2 mg/mL clear solution, a solvent was 10% ethanol, 40% polyethylene glycol 400 and 50% water, and after administration, plasma was collected 0.083 hour, 0.25 hour, 0.5 hour, 1 hour, 2 hours, 4 hours, 8 hours and 24 hours later. Intragastric administration: a test compound was prepared into 1 mg/mL clear solution, a solvent was 10% ethanol/40% polyethylene glycol 400/50% water, and after administration, plasma was collected 0.25 hour, 0.5 hour, 1 hour, 2 hours, 4 hours, 8 hours and 24 hours later.
# A concentration of the test compound in the plasma was determined by high-performance liquid chromatography-tandem mass spectrometry (LC-MS/MS). Retention time, chromatogram collection and chromatogram integration of compounds and internal standards were treated by software Analyst (Applied Biosystems), and data statistics was treated by software Analyst (Applied Biosystems).
# A plasma concentration was treated by a non-atrioventricular model of Winnonlin™ Version 6.1 (Pharsight, Mountain View, CA) pharmacokinetic software, and pharmacokinetic parameters were calculated by a linear logarithmic trapezoid method.
# Pharmacokinetic parameters of the compounds in the rats with an intravenous injection dose of 1 mg/kg and an intragastric and oral dose of 5 mg/kg were as shown in Table 20 below.
# [2] = mouse, in vivo
# Excerpt: In particular, a maximum tolerated dose of the compound 36 after repeated administration for 14 days is more than 2.7 times that of the compound 62, especially a safety window of the dose is more than 230 times that of the equivalent dose, so that the compound has high safety.
# [3] = system: diabetic nephropathy mouse model; assay: Pharmacodynamic effects on diabetic nephropathy mouse model; type: in vivo; conditions: KK-Ay mice
# Description: The pharmacodynamic effects of the compounds 36 and 62 on the diabetic nephropathy mouse model were evaluated.
# • Strain: C57BL/6 mice, and KK-Ay mice • Weeks of age: the animals were raised to 6 weeks to 8 weeks of age, and the experiment was started when the animals were 7 weeks to 9 weeks of age • Sex: male • Weight: C57BL/6 mice: 21 g to 23 g, and KK-Ay mice: 25 g to 30 g • Number: 72 experimental animals
# On the day of administration, the animals were randomly divided into 9 groups according to their weights, comprising a model group (KK-Ay+solvent), a Finerenone group (KK-Ay+Finerenone: 3 mg/kg), a low-dose compound 62 group (KK-Ay+compound 62: 1 mg/kg), a middle-dose compound 62 group (KK-Ay+compound 62: 3 mg/kg) and high-dose compound 62 group (KK-Ay+compound 62: 10 mg/kg), a low-dose compound 36 group (KK-Ay+compound 36: 1 mg/kg), a middle-dose compound 36 group (KK-Ay+compound 36: 3 mg/kg) and a high-dose compound 36 group (KK-Ay+compound 36: 10 mg/kg). Specific grouping and administration schemes referred to Table 70-2.
# When the experiment was started, 24-hour urine of the mice was collected by a metabolic cage in 2nd, 4th, 6th and 8th weeks before and after modeling, and microalbumin (MALB) and creatinine (CREA) contents of the urine were detected by CANON TBA-120FR automatic blood biochemistry to calculate (MALB/CREA).
# When the experiment was ended, the mice were euthanized, the blood was taken by heart puncture and put into an anticoagulant-free EP tube, allowed to stand at room temperature for 0.5 hour, and then centrifuged at 4° C. and 6000 g for 15 minutes, and the serum was collected and transferred to a new EP tube, and stored in a refrigerator at −80° C. An insulin content of the serum and serum ions were detected by an ELISA method.
# After the experiment was ended, the kidneys of all animals were dissected and collected, fixed in formalin, embedded and made into sections for PAS staining and Masson staining, and then quantitatively analyzed.
# Experimental results were expressed as “mean value±standard deviation”. The data of each group were statistically analyzed by GraphPad 8.0 software, and p<0.05 was considered to be statistically significant.
# [4] = Tissue distribution, AUC ratio of heart to kidney; type: in vivo; conditions: compared with Finerenone
# [5] = intragastric and oral administration 5 mg/kg
SMILES,"F [1, 5] [%]","AUC(0-t) [1, 5] [µg·h/mL]","Cmax [1, 5] [ng/mL]",AUC(0-t) ([1]; intravenous 1 mg/kg) [µg·h/mL],clearance ([1]; intravenous 1 mg/kg) [mL/min/kg],half-life ([1]; intravenous 1 mg/kg) [h],"maximum tolerated dose after repeated administration for 14 days, relative to compound 62 [2]",safety window of the dose relative to the equivalent dose ([2]; 14 days),diabetic nephropathy and hypertension [3],urinary protein/creatinine ratio [3],urinary sodium excretion [3],AUC (tissue distribution) ratio of heart to kidney [4],maximum tolerated dose after repeated administration for 14 days (safety in words) [2]
"CCOc1ncc(C)c2c1[C@H](c1ccc(C#N)c3c1OCC3)C(C(N)=O)=C(C)N2 [Example 36, (S)-4-(4-cyano-2,3-dihydrobenzofuran-7-yl)-5-ethoxy-2,8-dimethyl-1,4-dihydro-1,6-naphthyridine-3-formamide]",73.74,365,37000,94.1,0.14,12.1,more than 2.7 times that of the compound 62,more than 230 times that of the equivalent dose,improve,significantly reduce,significantly promote,lower,–
"CCOc1ncc(C)c2c1[C@H](c1ccc(C#N)c3c1OCO3)C(C(N)=O)=C(C)N2 [Example 62, (S)-4-(7-cyanobenzo[d][1,3]dioxol-4-yl)-5-ethoxy-2,8-dimethyl-1,4-dihydro-1,6-naphthyridine-3-formamide]",78.09,361,24000,106,0.13,10.1,–,–,improve,significantly reduce,significantly promote,–,highly safe

# Source: US20260250278A1, “PHENYL-SUBSTITUTED DIHYDRONAPHTHYRIDINE COMPOUNDS, AND PREPARATION AND USE THEREOF” (SUZHONG PHARMACEUTICAL GROUP CO., LTD., priority 2022, published 2026)
